For eleven compounds, IC50 and EC50 results are on record in patent US20210315869A1, “COMPOUNDS AND METHODS FOR CSK MODULATION AND INDICATIONS THEREFOR” (Plexxikon Inc., priority 2020, published 2021).

Test [1] concerns the target T1, CSK (Homo sapiens, UniProt P41240).
T1 construct: purchased Thermo Fisher
Description: Human CSK enzymatic assay (AlphaScreen, Poly (Glu4-Tyr) substrate). It counts as biochemical. As to conditions: 100 uM ATP; read-out: CSK IC50 (μM) COFACTOR: 100 uM ATP. As to the method:
This assay measures the ability of CSK to phosphorylate a biotinylated peptide containing multiple tyrosine residues in vitro. The CSK enzyme was purchased from Thermo Fisher. The biotinylated Poly (Glu4-Tyr) peptide substrate was purchased from Sigma-Aldrich. The CSK enzyme assay was performed using 0.75 ng CSK enzyme and 30 nM Poly (Glu4-Tyr) substrate in the presence of 25 mM Hepes pH 7.5, 5 mM Mg Acetate, 0.1% NP-40, 1 mM DTT, 0.01% BSA, and 100 μM ATP. A 19 μL volume of the above reaction mixture was added to wells of 384-well AlphaPlate (PerkinElmer GA, USA) containing 1 μL of various concentrations of test compound or DMSO vehicle and incubated for 60 minutes at room temperature. 16 wells containing all the components of reaction mixture and 5% DMSO serve as high control. 16 wells containing all the components except ATP of reaction mixture and 5% DMSO served as low control. The enzymatic reaction was stopped by the addition of 5 μL stop/detection mixture containing 25 mM Hepes pH 7.5 100 mM EDTA, and 5 μg/mL streptavidin-coated AlphaScreen donor beads (PerkinElmer GA, USA) and incubated for 20 minutes. A 5 μL mixture containing 25 mM Hepes pH 7.5, 100 mM EDTA, and 5 μg/mL anti-phosphotyrosine antibody PY20-coated AlphaScreen acceptor beads (PerkinElmer GA, USA) was added and the plate was incubated for 1 hour at room temperature. The streptavidin donor beads bind to the biotin moiety on the biotinylated Poly (Glu4-Tyr) substrate and the PY20 antibody-coated acceptor beads bind to tyrosine residues on the substrate that have been directly phosphorylated by CSK. Upon excitation of these beads with laser light at 680 nm, singlet oxygen was produced. This singlet oxygen was rapidly quenched, unless the AlphaScreen PY20 acceptor beads are in close proximity, in which case a proximity signal can be measured at 580 nm. In the presence of catalytic activity, there was a very strong proximity signal. Selective CSK inhibitors affect a decrease in this proximity signal through a decrease in phosphorylation of the Poly (Glu4-Tyr) substrate. The percentage of inhibition at individual concentrations relative to high and low controls was calculated. The data were analyzed by using nonlinear regression to generate IC50 values. Human LCK enzymatic assay
For orientation: Alpha assays give light when donor and acceptor beads are brought close together.

In test [2] the target is T2, LCK (Homo sapiens, UniProt P06239).
T2 construct: purchased ProQinase
Kind of test: Human LCK enzymatic assay (AlphaScreen, Poly (Glu4-Tyr) substrate). Conditions: 100 uM ATP; read-out: LCK IC50 (uM) COFACTOR: 100 uM ATP. It counts as biochemical. As to the method: This assay measures the ability of LCK to phosphorylate a biotinylated peptide containing multiple tyrosine residues in vitro. The LCK enzyme was purchased from ProQinase. The biotinylated Poly (Glu4-Tyr) peptide substrate was purchased from Sigma-Aldrich. The LCK enzyme assay was performed using 1 ng LCK enzyme and 30 nM Poly (Glu4-Tyr) substrate in the presence of 25 mM Hepes pH 7.5, 10 mM MnCl2, 50 mM NaCl, 0.01% Tween-20, 0.5 mM DTT, 0.01% BSA, and 100 μM ATP. A 19 μL volume of the above reaction mixture was added to wells of 384-well AlphaPlate (PerkinElmer GA, USA) containing 1 μL of various concentrations of test compound or DMSO vehicle and incubated for 40 minutes at 25° C. 16 wells containing all the components of reaction mixture and 5% DMSO served as high control. 16 wells containing all the components except ATP of reaction mixture and 5% DMSO served as low control. The enzymatic reaction was stopped by the addition of 5 μL stop/detection mixture containing 25 mM Hepes pH 7.5 100 mM EDTA, and 10 μg/mL streptavidin-coated AlphaScreen donor beads (PerkinElmer GA, USA) and incubated for 20 minutes. A 5 μL mixture containing 25 mM Hepes pH 7.5, 100 mM EDTA, and 10 μg/mL anti-phosphotyrosine antibody PY20-coated AlphaScreen acceptor beads (PerkinElmer GA, USA) was added and the plate was incubated for 1 hour at room temperature. The streptavidin donor beads bind to the biotin moiety on the biotinylated Poly (Glu4-Tyr) substrate and the PY20 antibody-coated acceptor beads bind to tyrosine residues on the substrate that have been directly phosphorylated by LCK. Upon excitation of these beads with laser light at 680 nm, singlet oxygen was produced. This singlet oxygen was rapidly quenched, unless the AlphaScreen PY20 acceptor beads are in close proximity, in which case a proximity signal can be measured at 580 nm. In the presence of catalytic activity, there was a very strong proximity signal. Selective LCK inhibitors affect a decrease in this proximity signal through a decrease in phosphorylation of the Poly (Glu4-Tyr) substrate. The percentage of inhibition at individual concentrations relative to high and low controls was calculated. The data were analyzed by using nonlinear regression to generate IC50 values.

In test [3] the test system is Jurkat/NFAT-RE cells. Description: NFAT reporter assay (luciferase) in Jurkat/NFAT-RE cells. It counts as cell-based. As to conditions: Homo sapiens, 0.02 μg/mL anti-CD3 antibody OKT3, 3 hours, read-out: Jurkat EC50 (uM) Cell Assay: Reporter Cell Variant: NFAT response element. From the text:
To assess the ability of CSK inhibitors to activate LCK and stimulate signaling downstream of the T-cell receptor, an NFAT reporter assay was used for monitoring of LCK activation in cells through the activation of LCK-dependent signaling through a reporter assay. The Jurkat T-cell cell line was genetically engineered to express a luciferase reporter that is regulated by the NFAT-response element. (Clipstone, N. A., & Crabtree, G. R., Identification of calcineurin as a key signalling enzyme in T-lymphocyte activation, Nature, 357(6380), 695-697, 1992). Stimulation of the T-cell receptor with anti-CD3 antibody increases the expression of the luciferase reporter. To test the ability of CSK inhibitors to stimulate LCK and downstream T-cell signaling, the cells were stimulated with a suboptimal concentration of anti-CD3 ligand, to measure the ability of CSK inhibitors to increase luciferase expression.
This assay measures the signaling activity downstream of the T-cell receptor, specifically the ability of the NFAT transcription factor to be translocated to the nucleus and induce expression of a firefly luciferase gene. Jurkat/NFAT-RE cells stably expressing the NFAT reporter construct were purchased from BPS Bioscience. The assay was performed by plating 40,000 Jurkat/NFAT-RE cells in a 50 μL volume of serum-free growth media in a 96-well plate. Following an overnight incubation, the cells were treated with CSK inhibitors and 0.02 μg/mL anti-CD3 antibody OKT3 (BD Bioscience) for 3 hours at 37° C. High control wells were stimulated with DMSO and 5 μg/mL OKT3 to maximally stimulate the NFAT reporter, and low control wells were stimulated with DMSO and 0.02 μg/mL OKT3. Following the 3 hour incubation, the cells were assayed for viability using CellTiter-Fluor™ (Promega), and for luciferase expression using ONE-Glo™ (Promega). The ONE-Glo™ signal was normalized to the CellTiter-Fluor™ signal, and the percentage of NFAT activation relative to high and low controls was calculated. The data were analyzed by using nonlinear regression to generate EC50 values. Selective CSK inhibitors affect an increase in luciferase expression in the presence of low level stimulation of the T-cell receptor.
Background: Reporter assays use an easily measured gene product as a stand-in for the process of interest.

T2 sequence (P06239 whole entry): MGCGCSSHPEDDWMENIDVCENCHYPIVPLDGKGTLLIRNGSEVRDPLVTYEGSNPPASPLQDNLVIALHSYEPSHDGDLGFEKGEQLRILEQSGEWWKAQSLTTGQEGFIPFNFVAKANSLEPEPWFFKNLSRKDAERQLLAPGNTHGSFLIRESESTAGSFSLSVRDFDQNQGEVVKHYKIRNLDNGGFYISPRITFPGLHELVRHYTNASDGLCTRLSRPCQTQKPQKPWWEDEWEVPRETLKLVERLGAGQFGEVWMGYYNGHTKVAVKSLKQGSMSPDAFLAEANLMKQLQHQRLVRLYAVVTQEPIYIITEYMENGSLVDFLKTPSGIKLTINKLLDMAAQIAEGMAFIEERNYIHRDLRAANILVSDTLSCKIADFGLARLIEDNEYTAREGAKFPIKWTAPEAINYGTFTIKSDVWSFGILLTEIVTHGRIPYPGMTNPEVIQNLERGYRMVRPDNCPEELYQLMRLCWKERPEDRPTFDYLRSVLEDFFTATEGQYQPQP
T1 sequence (P41240 whole entry): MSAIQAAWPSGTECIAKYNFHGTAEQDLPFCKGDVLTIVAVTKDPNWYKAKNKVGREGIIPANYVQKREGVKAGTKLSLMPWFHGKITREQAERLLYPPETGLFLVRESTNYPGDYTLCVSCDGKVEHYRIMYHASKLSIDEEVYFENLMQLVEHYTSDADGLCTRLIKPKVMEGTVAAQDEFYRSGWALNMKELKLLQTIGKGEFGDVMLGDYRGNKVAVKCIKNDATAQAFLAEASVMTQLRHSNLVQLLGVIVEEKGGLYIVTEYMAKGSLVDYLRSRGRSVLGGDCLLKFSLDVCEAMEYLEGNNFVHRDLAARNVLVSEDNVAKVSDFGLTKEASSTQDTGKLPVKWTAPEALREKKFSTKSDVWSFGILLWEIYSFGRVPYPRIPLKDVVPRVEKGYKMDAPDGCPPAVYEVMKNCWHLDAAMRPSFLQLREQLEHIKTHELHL

By IC50 is commonly meant the concentration at which inhibition is half-maximal. One may read the EC50 as the concentration needed to bring the measured effect to its halfway point. For `O=c1c(-c2c(F)ccc(NS(=O)(=O)c3cc4scnc4cc3F)c2F)cc2cnc(NCCO)cc2n1CC1CC1` [P-0010, N-(3-(1-(cyclopropylmethyl)-7-((2-hydroxyethyl)amino)-2-oxo-1,2-dihydro-1,6-naphthyridin-3-yl)-2,4-difluorophenyl)-5-fluorobenzo[d]thiazole-6-sulfonamide], the figures for the IC50 in test [1] and in test [2] were 0.001 to 0.5 µM and 5 to 100 µM, respectively. Moreover, the EC50 in test [3] was in the range of 0.5 to 5 µM.
Take `COCCNc1cc2c(cn1)cc(-c1c(F)ccc(NS(=O)(=O)c3cc4scnc4cc3F)c1F)c(=O)n2CC1CC1` [P-0011, N-(3-(1-(cyclopropylmethyl)-7-((2-methoxyethyl)amino)-2-oxo-1,2-dihydro-1,6-naphthyridin-3-yl)-2,4-difluorophenyl)-5-fluorobenzo[d]thiazole-6-sulfonamide]: the IC50 was 0.001 to 0.5 µM in test [1] and 5 to 100 µM in test [2]. The EC50 in test [3] was in the range of 0.5 to 5 µM.
For `O=c1c(-c2c(F)ccc(NS(=O)(=O)c3cc4scnc4cc3F)c2F)cc2cnc(Nc3ccn(C(F)F)n3)cc2n1C1CC1` [P-0012, N-(3-(1-cyclopropyl-7-((1-(difluoromethyl)-1H-pyrazol-3-yl)amino)-2-oxo-1,2-dihydro-1,6-naphthyndin-3-yl)-2,4-difluorophenyl)-5-fluorobenzo[d]thiazole-6-sulfonamide], in that order: 0.001 to 0.5 µM, 0.5 to 5 µM and 0.001 to 0.5 µM.
For `O=c1c(-c2c(F)ccc(NS(=O)(=O)c3cc4scnc4cc3F)c2F)cc2cnc(Nc3ccn(C(F)F)n3)cc2n1C1CC(F)(F)C1` [P-0013, N-(3-(1-(3,3-difluorocyclobutyl)-7-((1-(difluoromethyl)-1H-pyrazol-3-yl)amino)-2-oxo-1,2-dihydro-1,6-naphthyridin-3-yl)-2,4-difluorophenyl)-5-fluorobenzo[d]thiazole-6-sulfonamide] the same measures were 0.001 to 0.5 µM, 0.5 to 5 µM and 0.001 to 0.5 µM.
For `O=c1c(-c2c(F)ccc(NS(=O)(=O)c3cc4scnc4cc3F)c2F)cc2cnc(NCCO)cc2n1C1CC1` [P-0014, N-(3-(1-cyclopropyl-7-((2-hydroxyethyl)amino)-2-oxo-1,2-dihydro-1,6-naphthyridin-3-yl)-2,4-difluorophenyl)-5-fluorobenzo[d]thiazole-6-sulfonamide], in that order: 0.001 to 0.5 µM, 5 to 100 µM and 0.5 to 5 µM.
`O=c1c(-c2c(F)ccc(NS(=O)(=O)c3cc4scnc4cc3F)c2F)cc2cnc(NCCO)cc2n1C1CC(F)(F)C1` [P-0015, N-(3-(1-(3,3-difluorocyclobutyl)-7-((2-hydroxyethyl)amino)-2-oxo-1,2-dihydro-1,6-naphthyridin-3-yl)-2,4-difluorophenyl)-5-fluorobenzo[d]thiazole-6-sulfonamide]: the figures for the IC50 in test [1] and in test [2] were 0.5 to 5 µM and 5 to 100 µM, respectively. Besides, the EC50 in test [3] lay within 0.5 to 5 µM.
`CC(F)(F)Cn1c(=O)c(-c2c(F)ccc(NS(=O)(=O)c3cc4scnc4cc3F)c2F)cc2cnc(N)cc21` [P-0016, N-(3-(7-amino-1-(2,2-difluoropropyl)-2-oxo-1,2-dihydro-1,6-naphthyridin-3-yl)-2,4-difluorophenyl)-5-fluorobenzo[d]thiazole-6-sulfonamide]: the values for the concentration for half-maximal inhibition (IC50) in test [1] and in test [2] were 0.001 to 0.5 µM and 5 to 100 µM, respectively. In addition, in test [3], the EC50 was in the range of 0.001 to 0.5 µM.
Consider `Nc1cc2c(cn1)cc(-c1c(F)ccc(NS(=O)(=O)c3cc4scnc4cc3F)c1F)c(=O)n2CC(F)(F)C1CC1` [P-0017, N-(3-(7-amino-1-(2-cyclopropyl-2,2-difluoroethyl)-2-oxo-1,2-dihydro-1,6-naphthyridin-3-yl)-2,4-difluorophenyl)-5-fluorobenzo[d]thiazole-6-sulfonnamide], for which the results for the concentration for half-maximal inhibition (IC50) in test [1] and in test [2] were 0.001 to 0.5 µM and 5 to 100 µM, respectively. In addition, the half-maximal effective concentration (EC50) in test [3] fell in the range of 0.001 to 0.5 µM.
With `Nc1cc2c(cn1)cc(-c1c(F)ccc(NS(=O)(=O)c3cc4scnc4cc3F)c1F)c(=O)n2CC1CC(F)(F)C1` [P-0018, N-(3-(7-amino-1-((3,3-difluorocyclobutyl)methyl)-2-oxo-1,2-dihydro-1,6-naphthyridin-3-yl)-2,4-difluorophenyl)-5-fluorobenzo[d]thiazole-6-sulfonamide], the concentration for half-maximal inhibition (IC50) in test [1] was in the range of 0.001 to 0.5 µM; in test [2], 5 to 100 µM. Moreover, in test [3], the half-maximal effective concentration (EC50) is 0.001 to 0.5 µM.
In the case of `Nc1cc2c(cn1)cc(-c1c(F)ccc(NS(=O)(=O)c3ccc4ncsc4c3F)c1F)c(=O)n2CC(F)F` [P-0019, N-(3-(7-amino-1-(2,2-difluoroethyl)-2-oxo-1,2-dihydro-1,6-naphthyridin-3-yl)-2,4-difluorophenyl)-7-fluorobenzo[d]thiazole-6-sulfonamide], the figures for the IC50 in test [1] and in test [2] were 0.001 to 0.5 µM and 0.5 to 5 µM, respectively. For the same compound, the EC50 in test [3] is 0.001 to 0.5 µM.
As for `CC(F)(F)Cn1c(=O)c(-c2c(F)ccc(NS(=O)(=O)c3ccc4ncsc4c3F)c2F)cc2cnc(N)cc21` [P-0020, N-(3-(7-amino-1-(2,2-difluoropropyl)-2-oxo-1,2-dihydro-1,6-naphthyridin-3-yl)-2,4-difluorophenyl)-7-fluorobenzo[d]thiazole-6-sulfonamide], the IC50 in test [1] was in the range of 0.001 to 0.5 µM; in test [2] it was 0.5 to 5 µM. Moreover, the EC50 in test [3] lay in the range of 0.001 to 0.5 µM.
